Literature values as cited in patent US20180256534A1, “KETAMINE AND […] 450 INHIBITOR COMBINATIONS” (SEQUOIA PHARMACEUTICALS, INC., priority 2015, published 2018).

Legend:
[1] = system: patients with major depressive disorders

## CNC1(c2ccccc2Cl)CCCCC1=O (centres unmarked) [ketamine]
other
  serum concentration at which psychotomimetic symptoms appear: about 50 ng/ml
[1]
  onset of rapid antidepressant effect: two
